Experimental data reported in patent publication US20200147149A1, “COMPOSITIONS AND METHODS FOR THE MODULATION OF GUT SENSORY CELLS” (Duke University, priority 2017, published 2020).
Entries after “also recorded” stand apart in the source; their conditions may differ.

Assays:
iGluSnFR-HEK cells = iGluSnFR-HEK cells cultured alone, multiphoton imaging; format: cell-based; details: glutamate 100 μM
Description: HEK 293/17 cells (ATCC CRL-11268) were maintained in DMEM (Gibco 11965) supplemented with 10% FBS (Corning 35-010-CV), Glutamax, and non-essential amino acids (both Gibco). Cells were transfected with 1 ug plasmid pCMV(MinDis) iGluSnFR (Addgene 41732) using 1 ul Lipofectamine 2000 in Optimem (Gibco) in 24-well plates.
The 5.2 Kb iGluSnFR (pCMV(MinDis).iGluSnFR was a gift from Loren Looger; Addgene plasmid #41732) was moved to the zeocin resistant backbone of Addgene #51694 (DRH296: FCK-Optopatch2 was a gift from Adam Cohen) as a NdeI+XhoI fragment. The resulting plasmid (pMEK8) was transfected into HEK 293/17 cells (ATCC CRL-11268) using 1 μl Lipofectamine 2000/ug DNA. Cells were maintained in DMEM (Gibco 11965) supplemented with 10% FBS (Corning 35-010-CV), Glutamax, non-essential amino acids (both Gibco) and 3 μl/ml zeocin ([…], Invitrogen).
CckCRE_tdTomato enteroendocrine cells were isolated as described above. Isolated cells were mixed with iGluSnFR-HEK cells at a ratio of 10:1, then plated on 1% Matrigel coated coverslips. Control iGluSnFR-HEK cells were plated alone. Cells were incubated for 12-18 hours before imaging. Coverslips were imaged using a multiphoton microscopy system (Bruker Ultima IV with a Chameleon Vision II tunable laser). Imaging frames were captured at 1.876 fps, using 920 nm light. Imaging series were analyzed using Fiji (ImageJ), and cell traces were plotted with Excel.

[1] = test system: ionotropic glutamate receptor; experiment: Patch-clamp of nodose neurons co-cultured with CckCRE_ChR2 cells, photo-stimulation and microperfusion of glutamate blocker; format: cell-based, mouse; details: kynurenic acid 3 mM, n=4 pairs
Description: The small intestines of CckGFP and CckCRE_ChR2-tdTomato mice were dissected and flushed twice with cold PBS. The intestine was cut open lengthwise and cut again into ˜1 cm pieces. Tissue pieces were incubated with 3 mM EDTA at 4° C. for 15 minutes then at 37° C. for 15 minutes. New cold PBS was added and villi and crypts were mechanically detached. Villi and crypts were spun down and further digested in Collagenase and Dispase. Cells were spun down and re-suspended in L-15 media with 5% FBS and DNase to prevent cell clumping. Cells were passed through a 70 μm then 40 μm cell strainer to isolate single cells. Then cells were sorted using Fluorescence Activated Cell sorting (BD FACSAria) selecting for GFP fluorescence cells. […]
Enteroendocrine cells and nodose neurons were co-cultured as described above. […] CCK-producing enteroendocrine cells were identified by GFP expression and neurons by their morphology and lack of fluorescence. […] At the resting membrane potential, cell properties such as input resistance, and spike threshold were determined using 200 ms steps from −40 pA to 100 pA in 20 pA increment. After that, baseline neuron activity was recorded in current-clamp or voltage-clamp for 5 min before exposure to glucose (20 mM) for 30-60 sec, followed by a wash with no glucose-containing extracellular solution. […] EPSC responses were recorded for 1 second after light stimulation. […]

glutamate receptor = experiment: Antagonist studies: glutamate receptor antagonists on vagal nerve firing rate response to sucrose or 473 nm laser; format: in vivo, mouse; details: sucrose-300 mM; for time to peak (speed) of vagal response to sucrose: after KA/AP3 (150 μg/kg kynurenic acid + 1 mg/kg AP-3) or KA 150 μg/kg alone, sucrose alone 92.8 seconds, 1 mg/kg
Description: Wild-type control (n=5-9), CckCRE_ChR2-tdTomato (n=6), CckCRE_Halorhodopsin-YFP (n=5), and Vglut1CRE_ChR2-YFP (n=6) mice were used for vagal recordings. Mice were anesthetized with 3 mg/g-mouse urethane 1 hour before surgery then with 0.5-1% isoflurane. A section of neck skin was removed between the jaw and clavicle. The thyroid was reflected bilaterally, and the carotid bundle was exposed using coarse dissection. The carotid nerve was separated from the vagus nerve using a curved blunt probe. Two platinum iridium wires (0.001″ diameter, PTFE coated, 10% Ir 90% Pt; Medwire by Sigmund Cohn Corp) were looped around the vagus nerve for recording. Mineral oil was used to insulate the vagus nerve from surrounding tissue. The small intestine was exposed by removing a section of skin and peritoneum. A 20 gauge gavage needle was surgically inserted through the stomach wall and into the duodenum. The gavage needle was sutured in place beyond the pyloric sphincter. Saline and stimulant tubes were connected to the gavage needle. For optogenetic experiments, a fiber optic cable (FT020, ThorLabs) was threaded through the gavage needle into the lumen of the duodenum. A perfusion exit incision was made 10 cm distal to the pyloric sphincter. During each recording, PBS was constantly perfused through the duodenum using a peristaltic pump (Cole-Parmer) at the lowest setting for a flow rate of ˜400 uL PBS per minute. Stimulation conditions were applied after recording 2 minutes of baseline activity. During whole nutrient stimulation conditions, PBS perfusion was continuous and 200 μL of ENSURE® was perfused through the second tube for 1 minute using a syringe pump. […] During CCK stimulation conditions, PBS perfusion was continuous, and 200 μL of 2.9 μM CCK octapeptide-sulfated (BaChem) was perfused through the second tube for 1 minute using a syringe pump (Fusion 200, Chemyx) for a final concentration of ˜870 nM CCK in PBS (10 μg/kg dose). […] Final stimulant concentrations were determined using the ratio of dilution and confirmed by osmolarity testing (Model 3320 Osmometer, Advanced Instruments Inc.). […]
Extracellular voltage was recorded from a pair of platinum iridium wires as described above. […] The raw data was analyzed using a spike sorting algorithm (MATLAB by MathWorks). Spikes were detected using simple threshold detection based on RMS noise. The firing rate was calculated using a Gaussian kernel smoothing algorithm (200-ms time scale).
Stimulation response was quantified as the maximum firing rate after stimulation (stimulant conditions) or during recording (baseline). […] Maximum firing rate was analyzed across genotype, stimulation condition, and their interaction term by ANOVA, followed by HSD post hoc testing (iMP by SAS Institute).

[2] = test system: intestinal CCK enteroendocrine cells; experiment: Calcium imaging (GCaMP6s) of enteroendocrine cells in CckCRE_tdTomato intestinal organoids; format: cell-based, mouse; details: 10 mM sucrose; 40 mM KCl control; n=5
Description: For neurons, Phox2bCRE_GCaMP6s (n=3) nodose neurons were dissociated and plated. Nodose ganglia were dissected and digested in Liberase (Roche, 5401054001). Neurons were washed and filtered through a 70 μm cell strainer, then plated on 12 mm coverslips and placed in an incubator overnight. Cells were imaged 1-2 days later. Coverslips were placed in the recording chamber of a Zeiss Examiner Z1 and imaged with a Hamamatsu camera (Orca-flash4.0; C11440) using the Zeiss ZEN software package. For enteroendocrine cells, CckCRE_tdTomato organoids with transduced with ΔG-rabies-GCaMP6s. Organoids were imaged using multi photon microscopy 3-4 days after transduction. Imaging buffer (in mM: 140 NaCl, 5 KCl, 2 CaCl2, 2 MgCl2, 10 HEPES) was continuously perfused over the coverslips. […] Images were analyzed with Fiji ([…]), and cell traces were plotted with Matlab.

vagus nerve [3] = experiment: Vagus nerve recording during intraluminal (duodenal) nutrient or CCK perfusion; format: in vivo, mouse; details: for time to maximum peak firing rate after the onset of the stimulus: CCK 870 nM or sucrose 300 mM intraluminal, FIG. 30C
Description: Wild-type control (n=5-9), CckCRE_ChR2-tdTomato (n=6), CckCRE_Halorhodopsin-YFP (n=5), and Vglut1CRE_ChR2-YFP (n=6) mice were used for vagal recordings. Mice were anesthetized with 3 mg/g-mouse urethane 1 hour before surgery then with 0.5-1% isoflurane. A section of neck skin was removed between the jaw and clavicle. The thyroid was reflected bilaterally, and the carotid bundle was exposed using coarse dissection. The carotid nerve was separated from the vagus nerve using a curved blunt probe. Two platinum iridium wires (0.001″ diameter, PTFE coated, 10% Ir 90% Pt; Medwire by Sigmund Cohn Corp) were looped around the vagus nerve for recording. Mineral oil was used to insulate the vagus nerve from surrounding tissue. The small intestine was exposed by removing a section of skin and peritoneum. A 20 gauge gavage needle was surgically inserted through the stomach wall and into the duodenum. The gavage needle was sutured in place beyond the pyloric sphincter. Saline and stimulant tubes were connected to the gavage needle. For optogenetic experiments, a fiber optic cable (FT020, ThorLabs) was threaded through the gavage needle into the lumen of the duodenum. A perfusion exit incision was made 10 cm distal to the pyloric sphincter. During each recording, PBS was constantly perfused through the duodenum using a peristaltic pump (Cole-Parmer) at the lowest setting for a flow rate of ˜400 uL PBS per minute. Stimulation conditions were applied after recording 2 minutes of baseline activity. During whole nutrient stimulation conditions, PBS perfusion was continuous and 200 μL of ENSURE® was perfused through the second tube for 1 minute using a syringe pump. […] During CCK stimulation conditions, PBS perfusion was continuous, and 200 μL of 2.9 μM CCK octapeptide-sulfated (BaChem) was perfused through the second tube for 1 minute using a syringe pump (Fusion 200, Chemyx) for a final concentration of ˜870 nM CCK in PBS (10 μg/kg dose). […] Final stimulant concentrations were determined using the ratio of dilution and confirmed by osmolarity testing (Model 3320 Osmometer, Advanced Instruments Inc.). During 473 nm laser stimulation conditions, PBS perfusion was continuous, and the laser was pulsed for 1 minute at 40 Hz, 4 volts peak voltage, 20% duty cycle (473 nm, 80 mW laser, RGBlase).
Extracellular voltage was recorded from a pair of platinum iridium wires as described above. A differential amplifier and bandpass filter (1000× gain, 300 Hz-5 kHz bandpass filter; A-M Systems LLC) was used and the signal was processed using a data acquisition board and software (20 kHz sampling rate; Signal Express, National Instruments Corp). The raw data was analyzed using a spike sorting algorithm (MATLAB by MathWorks). Spikes were detected using simple threshold detection based on RMS noise. The firing rate was calculated using a Gaussian kernel smoothing algorithm (200-ms time scale).
Stimulation response was quantified as the maximum firing rate after stimulation (stimulant conditions) or during recording (baseline). Each trial serves as its own control by normalizing the maximum firing rate to the average baseline firing rate (defined as the first two minutes of recording, prior to stimulation onset). Mice were excluded from analysis if no sucrose response was present throughout recording. Maximum firing rate was analyzed across genotype, stimulation condition, and their interaction term by ANOVA, followed by HSD post hoc testing (iMP by SAS Institute).

vagus nerve [4] = experiment: as above; format: in vivo, mouse; details: sucrose 300 mM delivered intraperitoneally, wild-type mice

## N[C@@H](CCC(=O)O)C(=O)O [glutamate, reference compound]
iGluSnFR-HEK cells
  fluorescence response of iGluSnFR-HEK cells cultured alone: did respond; also recorded: causes an increase in fluorescence

## O=C(O)c1cc(=O)c2ccccc2[nH]1 [kynurenic acid]
[1]
  effect on light (470/473 nm) evoked EPSCs in connected nodose neurons: abolished
[1]; wash
  light evoked response after the blocker is washed away: recovered
Glutamate receptor; KA/AP3 = 150 μg/kg kynurenic acid + 1 mg/kg AP-3, or KA 150 μg/kg alone, wild-type mice
  effect on maximum (peak) normalized vagal firing rate in response to sucrose: do not
Glutamate receptor
  time to peak (speed) of vagal response to sucrose: about 180 seconds
Glutamate receptor; listed as KA
  time to peak (speed) of vagal response to sucrose: 198 s
Glutamate receptor; kynurenic acid alone (150 μg/kg; dose range 1.5 μg/kg-1.5 mg/kg in FIG. 32), 1.5 mg/kg
  effect on rapid (first 60 seconds) vagal response to sucrose: suppressed; also recorded: attenuates rapid vagal response but not prolonged vagal response

## OC[C@H]1O[C@@](CO)(O[C@H]2O[C@H](CO)[C@@H](O)[C@H](O)[C@H]2O)[C@@H](O)[C@@H]1O [sucrose]
[2]
  magnitude of the sugar response as percent fluorescence of the KCl response: 72.4±10.6%
Vagus nerve [3]; wild-type mice
  time to maximum peak firing rate after the onset of the stimulus: about 60 s
Vagus nerve [3]; luminal sucrose 300 mM, CckCRE_Halo-YFP mice, no laser
  vagal response: elicited a vagal response
Vagus nerve [3]; sucrose 100 mM-300 mM (300 mM in figures) perfused intraluminally, wild-type mice, vs baseline
  vagal firing rate: significantly increased; also recorded: stimulate
Vagus nerve [3]; sucrose-300 mM without antagonist, wild-type mice, average, FIG. 25D
  time to peak of vagal response: 92.8 s
Vagus nerve [3]; sucrose-300 mM, Vglut1CRE_ChR2 mice
  vagal activity: stimulate vagal activity
Vagus nerve [4]
  vagal firing rate: not observed; also recorded: did not increase vagal firing rate

## CCK8: CCK octapeptide-sulfated (BaChem) [reference compound]
Vagus nerve [3]; wild-type mice
  time to maximum peak firing rate after the onset of the stimulus: about 180 s
Vagus nerve [3]; CCK8 870 nM (10 μg/kg) infused into the intestinal lumen, wild-type mice
  vagal firing rate (maximum): increased the vagal firing rate to a similar maximum reached by sucrose
